One substance from patent US12606594B2, “Heterotandem bicyclic peptide complexes” (BicycleTx Limited, priority 2019, dated 2026) can be followed below.

“And” between values parts separate entries of the source, which are not always exact repeats. Equal values may be shown once. Read-outs that look alike come from different tables or passages of the source. Starred links: 1 amine or outer side, 2 acyl side, 3 side chain; linkers in the order of their positions; H or OH if unused. Positions of bridges follow the written chain, without caps; N, C: chain ends. Non-standard residues stand in square brackets, D forms with d. Chains are numbered I, II in the order given. X1 = O=C(CCOCCOCCOCCN(CCOCCOCCOCCn1cc(CCC(=O)[*:2])nn1)CCOCCOCCOCCn1cc(CCC(=O)[*:3])nn1)[*:1]; TATA = O=C(CC[*:1])N1CN(C(=O)CC[*:2])CN(C(=O)CC[*:3])C1; d1Nal = N[C@H](Cc1cccc2ccccc12)C(=O)O; Hyp = O=C(O)[C@@H]1C[C@@H](O)CN1; hArg = N=C(N)NCCCC[C@H](N)C(=O)O; tBuAla = CC(C)(C)C[C@H](N)C(=O)O; Nle = CCCC[C@H](N)C(=O)O

The subject of data set [1] is CD137. Briefly: CD137 reporter assay co-culture with tumor cells (Promega CD137 luciferase reporter, Jurkat cells). It is filed as cell-based. On the procedure:
(§1) Culture medium, referred to as R1 media, is prepared by adding 1% FBS to RPMI-1640 (component of Promega kit CS196005). Serial dilutions of test articles in R1 are prepared in a sterile 96 well-plate. Add 25 μL per well of test articles or R1 (as a background control) to designated wells in a white cell culture plate. Tumor cells* are harvested and resuspended at a concentration of 400,000 cells/mL in R1 media. Twenty five (25) μL/well of tumor cells are added to the white cell culture plate. Jurkat cells (Promega kit CS196005, 0.5 mL) are thawed in the water bath and then added to 5 ml pre-warmed R1 media. Twenty five (25) […] of Jurkat cells are then added to the white cell culture plate. Incubate the cells and test articles for 6 h at 37° C., 5% CO2. At the end of 6 h, add 75 µL/well Bio-Glo™ reagent (Promega) and incubate for 10 min before reading luminescence in a plate reader (Clariostar, BMG). The fold change relative to cells alone (Jurkat cells+Cell line used in co-culture) is calculated and plotted in GraphPad Prism as log(agonist) vs response to determine EC50 (nM) and Fold Induction over background (Max).
(§2) The tumor cell types used in co-culture for EphA2 are A549, PC-3 and HT29.

Assay in data set [2]: as above
Format: cell-based. The note with it: read-out: Emax (Fold Induction over background). Here is the method:
as §1, §2

The nature of data set [3]: Pharmacokinetics of BCY13272 in SD rats. Format: in vivo. To be noted: 3.6 mg/kg IV infusion (15 min). Here is the method: Male SD Rats were dosed with heterotandem complex BCY13272 formulated in 25 mM Histidine HCl, 10% sucrose pH 7 by IV bolus or IV infusion (15 minutes). Serial bleeding (about 80 μL blood/time point) was performed via submandibular or saphenous vein at each time point. All blood samples were immediately transferred into prechilled microcentrifuge tubes containing 2 μL K2-EDTA (0.5M) as anti-coagulant and placed on wet ice. Blood samples were immediately processed for plasma by centrifugation at approximately 4° C., 3000 g. The precipitant including internal standard was immediately added into the plasma, mixed well and centrifuged at 12,000 rpm, 4° C. for 10 minutes. The supernatant was transferred into pre-labeled polypropylene microcentrifuge tubes, and then quick-frozen over dry ice. The samples were stored at […] or below as needed until analysis. 7.5 μL of the supernatant samples were directly injected for LC-MS/MS analysis using an Orbitrap Q Exactive in positive ion mode to determine the concentrations of analyte. Plasma concentration versus time data were analyzed by non-compartmental approaches using the Phoenix WinNonlin 6.3 software program. CO, Cl, Vdss, T½, AUC(0-last), AUC(0-inf), MRT(0-last), MRT(0-inf) and graphs of plasma concentration versus time profile were reported.

“I: A[hArg]DC[Hyp]LVNPLCLEP[d1Nal]WTC-NH2 / II: Ac-C[tBuAla]PE[dK]PYCFADPY[Nle]CA-NH2 / III: Ac-C[tBuAla]PE[dK]PYCFADPY[Nle]CA-NH2 (linker I:4-I:11-I:18, II:1-II:8-II:15, III:1-III:8-III:15 via TATA (inferred); linker I:N-II:5-III:5 via X1 (inferred)) [BCY13272]”: the “Emax (Fold Induction over background)” value is 23.6 and 30.2 in data set [1] (EphA2 cell line A549); 26 and 36.4 in data set [1] (EphA2 cell line HT-29); 53 and 44.5 in data set [1] (EphA2 cell line PC-3). The fold induction in data set [2] (EphA2 cell line A549) amounted to 25.7; in data set [2] (EphA2 cell line HT-29), 36.5; in data set [2] (EphA2 cell line PC-3), 44.2. Besides, the “T½ (terminal half-life)” value in data set [3] (3.6 mg/kg) stood at 2.9 h. In data set [3] (rat, in vivo, read-out: Clp (clearance)), the clearance (commonly the rate of elimination divided by the concentration) was determined as 7.4 mL/min/kg.
